Data reported in ChEMBL document CHEMBL1201862, “PubChem BioAssay data set” (2004).
Activity calls are given as the source filed them.

Tests used:
[1] = target: T1, RNA-binding protein pos-1 (Caenorhabditis elegans, UniProt G5EF15); experiment: inhibitors of POS-1/mex-3 RNA binding, dose response, biochemical, fluorescence polarization (AID 1964);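 further: purified POS-1 fused to maltose binding protein made in E. coli; potency of compounds blocking POS-1 binding to fluorescent RNA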
T1 sequence (G5EF15 whole entry): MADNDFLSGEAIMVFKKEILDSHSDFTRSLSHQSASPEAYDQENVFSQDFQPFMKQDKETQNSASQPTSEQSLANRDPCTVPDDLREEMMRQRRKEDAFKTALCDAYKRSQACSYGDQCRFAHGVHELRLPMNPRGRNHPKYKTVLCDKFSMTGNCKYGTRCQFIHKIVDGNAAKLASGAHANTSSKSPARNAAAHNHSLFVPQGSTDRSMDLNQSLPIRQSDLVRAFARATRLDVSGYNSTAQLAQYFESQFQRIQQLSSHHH

[2] = target: T2, Zinc finger protein mex-5 (Caenorhabditis elegans, UniProt Q9XUB2); experiment: MEX-5/TCR-2 RNA interaction inhibitors, dose response, biochemical, C. elegans, fluorescence polarization (AID 1960)
T2 sequence (Q9XUB2 whole entry): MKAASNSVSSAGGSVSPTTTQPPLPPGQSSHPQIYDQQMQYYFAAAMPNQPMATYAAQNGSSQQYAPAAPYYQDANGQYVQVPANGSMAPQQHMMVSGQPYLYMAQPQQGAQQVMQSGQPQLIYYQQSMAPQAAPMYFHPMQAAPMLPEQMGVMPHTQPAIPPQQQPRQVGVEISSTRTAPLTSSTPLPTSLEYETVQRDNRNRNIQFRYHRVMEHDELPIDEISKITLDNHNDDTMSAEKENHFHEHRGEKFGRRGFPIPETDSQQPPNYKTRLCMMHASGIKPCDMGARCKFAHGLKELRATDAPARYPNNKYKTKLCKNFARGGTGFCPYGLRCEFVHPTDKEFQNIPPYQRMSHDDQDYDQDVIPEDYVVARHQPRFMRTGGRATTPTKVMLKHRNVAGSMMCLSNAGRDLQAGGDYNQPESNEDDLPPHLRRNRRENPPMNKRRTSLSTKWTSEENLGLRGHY

[3] = Escherichia coli growth inhibition, dose response, counter-screen for MEX-5/POS-1 RNA-binding inhibitor project, luminescence, NEB5alpha (AID 1959); assay type: functional
Exodeoxyribonuclease V = Exodeoxyribonuclease V (Escherichia coli (strain K12), UniProt P04993+P07648+P08394); experiment: E. coli RecBCD inhibitors, dose response, counter-screen for AddAB inhibitor project, absorbance, V66 E. coli, mutant T4 phage (AID 492957); assay type: functional, cell-based, Escherichia coli str. K-12 substr. MG1655
[4] = Counterscreen for AddAB inhibitors: absorbance-based bacterial cell-based high throughput dose response assay for inhibitors of bacterial viability. [Related pubchem assays (depositor defined):AID435030, AID449728, AID449731, AID488942, AID488955, AID488956]; assay type: functional
[5] = target: T3, Dual specificity protein phosphatase 3 (Homo sapiens, UniProt P51452); experiment: VHR1 phosphatase inhibitors, primary screen, biochemical, absorbance, uHTS (AID 1654)
[6] = system: Streptococcus sp. 'group A'; experiment: growth inhibition of control SK(-) GAS strain, dose response, counter-screen for streptokinase expression inhibitor project, luminescence, kanamycin, BacTiterGlo, confirmation (AID 1900); assay type: functional, organism-based
Streptokinase A = target: T4, Streptokinase A (Streptococcus pyogenes serotype M1, UniProt P10520); experiment: S. pyogenes streptokinase expression inhibitors, potency, dose response, plasminogen activation absorbance, OD405 (AID 1914); assay type: functional, Streptococcus pyogenes M1 GAS;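 further: secreted streptokinase activity via plasminogen activation per viability signal from cell pellet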
T4 sequence (P10520 whole entry): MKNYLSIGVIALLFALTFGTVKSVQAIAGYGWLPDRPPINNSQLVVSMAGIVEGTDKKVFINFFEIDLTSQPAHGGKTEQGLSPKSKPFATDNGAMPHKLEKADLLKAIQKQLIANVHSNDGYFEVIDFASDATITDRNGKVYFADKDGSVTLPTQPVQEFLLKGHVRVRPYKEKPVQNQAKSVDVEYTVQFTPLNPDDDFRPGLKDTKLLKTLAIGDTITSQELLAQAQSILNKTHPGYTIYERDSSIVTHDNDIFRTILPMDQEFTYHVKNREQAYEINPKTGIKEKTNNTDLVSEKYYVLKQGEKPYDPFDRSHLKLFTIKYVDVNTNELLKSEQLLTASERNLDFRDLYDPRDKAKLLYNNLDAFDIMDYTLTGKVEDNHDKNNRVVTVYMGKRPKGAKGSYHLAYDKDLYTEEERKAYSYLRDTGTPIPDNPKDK

[7] = target: T3, Dual specificity protein phosphatase 3; experiment: VHR1 phosphatase inhibitors, biochemical (AID 1878)
[8] = target: T5, Calpain-2 catalytic subunit (Sus scrofa, UniProt P43367); experiment: pig calpain II inhibitor potency, dose response, biochemical, fluorogenic peptide substrate (AID 1420); assay type: functional
T5 sequence (P43367 whole entry): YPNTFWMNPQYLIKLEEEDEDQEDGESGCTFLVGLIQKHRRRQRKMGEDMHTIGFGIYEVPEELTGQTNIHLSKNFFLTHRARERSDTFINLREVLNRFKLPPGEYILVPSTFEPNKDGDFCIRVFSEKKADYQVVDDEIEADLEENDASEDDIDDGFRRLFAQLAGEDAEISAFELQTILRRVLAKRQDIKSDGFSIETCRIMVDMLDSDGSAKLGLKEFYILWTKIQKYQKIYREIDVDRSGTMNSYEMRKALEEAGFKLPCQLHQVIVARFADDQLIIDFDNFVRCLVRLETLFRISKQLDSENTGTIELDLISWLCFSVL

[9] = target: T6, Dual specificity protein phosphatase 6 (Rattus norvegicus, UniProt Q64346); experiment: MKP-3 phosphatase inhibitors, primary screen, biochemical, rat enzyme, in vitro (AID 425)
T6 sequence (Q64346 whole entry): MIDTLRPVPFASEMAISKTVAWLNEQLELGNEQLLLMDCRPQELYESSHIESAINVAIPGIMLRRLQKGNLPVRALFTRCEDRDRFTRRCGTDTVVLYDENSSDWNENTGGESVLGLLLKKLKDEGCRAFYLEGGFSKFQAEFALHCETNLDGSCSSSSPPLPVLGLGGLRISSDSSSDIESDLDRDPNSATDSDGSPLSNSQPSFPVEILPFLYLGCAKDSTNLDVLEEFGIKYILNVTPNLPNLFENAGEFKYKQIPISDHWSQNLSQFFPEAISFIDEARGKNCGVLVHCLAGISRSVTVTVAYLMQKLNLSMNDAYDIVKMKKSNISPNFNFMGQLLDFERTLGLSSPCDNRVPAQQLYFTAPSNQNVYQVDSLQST

Streptococcus = experiment: Group A Streptococcus viability loss, dose response, counter-screen for streptokinase expression inhibitor project, luminescence, BacTiterGlo (AID 1915); assay type: functional, organism-based;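 further: potency for reduction of bacterial viability or growth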
Genome polyprotein = Genome polyprotein (dengue virus type 2, UniProt P29990); experiment: Dengue-2 NS5 methyltransferase inhibitors, primary screen, biochemical, confirmation dose response (AID 588689); assay type: functional
[10] = target: T7, Small ubiquitin-related modifier 2 (Homo sapiens, UniProt P61956); experiment: SUMO2–SIM peptide binding inhibitors, dose response, selectivity assay for SUMO1 interaction inhibitor project, biochemical, fluorescence polarization, uHTS hits (AID 624385); assay type: functional; settings: read-out: IC50_Mean
[11] = target: T8, Small ubiquitin-related modifier 1 (Homo sapiens, UniProt P63165); experiment: inhibitors of SUMO1 peptide binding, dose response, biochemical, fluorescence polarization, uHTS hits (AID 624382); assay type: functional; settings: read-out: IC50_Mean
[12] = target: T7, Small ubiquitin-related modifier 2; experiment: inhibitors of SUMO2 protein-protein interaction, dose response, selectivity assay for SUMO1 interaction inhibitor project, biochemical, FRET, human SUMO2, uHTS hits (AID 624384); assay type: functional; settings: read-out: IC50_Mean
[13] = target: T8, Small ubiquitin-related modifier 1; experiment: inhibitors of SUMO1 partner interactions, dose response, biochemical, FRET (AID 624383); assay type: functional; settings: read-out: IC50_Mean
[14] = target: T9, Nucleotide-binding oligomerization domain-containing protein 1 (Homo sapiens, UniProt Q9Y239); experiment: SAR analysis of NF-kappaB dependent luciferase using DAP as an inducer - Set 2. [Related pubchem assays (depositor defined):AID1566, AID1575, AID1578, AID1579, AID1849, AID1852, AID2264]; assay type: functional
T9 sequence (Q9Y239 whole entry): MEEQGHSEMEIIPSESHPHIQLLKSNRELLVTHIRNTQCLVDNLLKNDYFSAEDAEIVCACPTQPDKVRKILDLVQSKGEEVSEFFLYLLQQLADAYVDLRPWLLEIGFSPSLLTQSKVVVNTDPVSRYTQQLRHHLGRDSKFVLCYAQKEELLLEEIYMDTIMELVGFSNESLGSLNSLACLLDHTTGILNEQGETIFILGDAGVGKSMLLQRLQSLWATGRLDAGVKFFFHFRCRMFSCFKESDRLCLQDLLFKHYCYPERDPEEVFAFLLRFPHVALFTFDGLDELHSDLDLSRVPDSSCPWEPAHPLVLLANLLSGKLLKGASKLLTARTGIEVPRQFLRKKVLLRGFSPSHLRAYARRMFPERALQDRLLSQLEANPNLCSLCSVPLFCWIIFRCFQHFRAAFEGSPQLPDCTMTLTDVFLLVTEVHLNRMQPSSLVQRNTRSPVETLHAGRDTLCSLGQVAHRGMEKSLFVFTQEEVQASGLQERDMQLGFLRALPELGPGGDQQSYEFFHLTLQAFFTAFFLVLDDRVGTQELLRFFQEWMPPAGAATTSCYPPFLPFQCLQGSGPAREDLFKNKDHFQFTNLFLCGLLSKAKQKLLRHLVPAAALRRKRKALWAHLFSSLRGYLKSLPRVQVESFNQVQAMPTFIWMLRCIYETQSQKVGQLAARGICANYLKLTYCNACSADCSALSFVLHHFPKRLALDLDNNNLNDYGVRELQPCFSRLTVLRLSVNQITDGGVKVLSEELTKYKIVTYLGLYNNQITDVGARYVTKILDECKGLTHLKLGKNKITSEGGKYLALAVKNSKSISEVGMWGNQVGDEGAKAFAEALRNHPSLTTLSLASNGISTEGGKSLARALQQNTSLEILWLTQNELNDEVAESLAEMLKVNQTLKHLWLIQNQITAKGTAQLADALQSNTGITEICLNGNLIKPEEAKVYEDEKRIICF

Interleukin-8 [15] = target: T10, Interleukin-8 (Homo sapiens, UniProt P10145); experiment: SAR analysis of Tumor necrosis factor alpha (TNF-alpha) induced IL-8 secretion in MCF-7/NOD1 cells - Set 2. [Related pubchem assays (depositor defined):AID1575, AID2250, AID2260]; assay type: functional, cell-based
T10 sequence (P10145 whole entry): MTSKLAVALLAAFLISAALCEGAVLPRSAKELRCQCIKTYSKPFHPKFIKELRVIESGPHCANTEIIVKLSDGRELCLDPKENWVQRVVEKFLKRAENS

Interleukin-8 [16] = target: T10, Interleukin-8; experiment: SAR analysis of GM-Tri-DAP induced IL-8 secretion in MCF-7/NOD1 cells - Set 2. [Related pubchem assays (depositor defined):AID1575, AID1578, AID2333]; assay type: functional, cell-based
[17] = target: T11, Nucleotide-binding oligomerization domain-containing protein 2 (Homo sapiens, UniProt Q9HC29); experiment: NOD2 inhibitors, SAR follow-up, set 2 (AID 2475); assay type: functional
HEK293 [18] = experiment: SAR analysis of compounds that are cytotoxic to HEK293 - Set 2. [Related pubchem assays (depositor defined):AID1575, AID1578, AID1849, AID2001, AID2333, AID2334, AID2335, AID2337, AID2800]; assay type: functional, cell-based; settings: Homo sapiens
[19] = target: T9, Nucleotide-binding oligomerization domain-containing protein 1; experiment: SAR analysis of compounds that inhibit NOD1 - Set 2. [Related pubchem assays (depositor defined):AID1566, AID1575, AID1578, AID1849, AID1852, AID2333, AID2335, AID2798]; assay type: functional
[20] = target: T9, Nucleotide-binding oligomerization domain-containing protein 1; experiment: SAR analysis of compounds that inhibit NOD1 - Set 3. [Related pubchem assays (depositor defined):AID1566, AID1575, AID1578, AID1849, AID1852, AID2333, AID2335, AID2466]; assay type: functional
Tumor necrosis factor = Tumor necrosis factor (Homo sapiens, UniProt P01375); experiment: TNFa-triggered NF-kB activation inhibitors, SAR follow-up, cell-based, set 3 (AID 2801); assay type: functional
HEK293 [21] = experiment: SAR analysis of compounds that are cytotoxic to HEK293 - Set 3. [Related pubchem assays (depositor defined):AID1575, AID1578, AID1848, AID1849, AID2001, AID2333, AID2334, AID2335, AID2337, AID2469]; assay type: functional, cell-based; settings: Homo sapiens
[22] = target: T11, Nucleotide-binding oligomerization domain-containing protein 2; experiment: NOD2 signaling inhibitors, analog potency, SAR follow-up, cell-based, set 3 (AID 2799); assay type: functional

T8 sequence (P63165 whole entry): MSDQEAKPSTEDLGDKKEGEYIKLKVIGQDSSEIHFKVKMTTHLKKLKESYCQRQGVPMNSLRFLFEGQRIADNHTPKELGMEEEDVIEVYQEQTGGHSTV
T3 sequence (P51452 whole entry): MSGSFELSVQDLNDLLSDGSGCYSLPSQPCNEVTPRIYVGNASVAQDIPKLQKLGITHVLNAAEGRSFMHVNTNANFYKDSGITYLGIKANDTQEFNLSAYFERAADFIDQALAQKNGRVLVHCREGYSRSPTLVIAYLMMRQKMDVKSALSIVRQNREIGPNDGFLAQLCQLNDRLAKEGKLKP
T11 sequence (Q9HC29 whole entry, the tested form may be a part): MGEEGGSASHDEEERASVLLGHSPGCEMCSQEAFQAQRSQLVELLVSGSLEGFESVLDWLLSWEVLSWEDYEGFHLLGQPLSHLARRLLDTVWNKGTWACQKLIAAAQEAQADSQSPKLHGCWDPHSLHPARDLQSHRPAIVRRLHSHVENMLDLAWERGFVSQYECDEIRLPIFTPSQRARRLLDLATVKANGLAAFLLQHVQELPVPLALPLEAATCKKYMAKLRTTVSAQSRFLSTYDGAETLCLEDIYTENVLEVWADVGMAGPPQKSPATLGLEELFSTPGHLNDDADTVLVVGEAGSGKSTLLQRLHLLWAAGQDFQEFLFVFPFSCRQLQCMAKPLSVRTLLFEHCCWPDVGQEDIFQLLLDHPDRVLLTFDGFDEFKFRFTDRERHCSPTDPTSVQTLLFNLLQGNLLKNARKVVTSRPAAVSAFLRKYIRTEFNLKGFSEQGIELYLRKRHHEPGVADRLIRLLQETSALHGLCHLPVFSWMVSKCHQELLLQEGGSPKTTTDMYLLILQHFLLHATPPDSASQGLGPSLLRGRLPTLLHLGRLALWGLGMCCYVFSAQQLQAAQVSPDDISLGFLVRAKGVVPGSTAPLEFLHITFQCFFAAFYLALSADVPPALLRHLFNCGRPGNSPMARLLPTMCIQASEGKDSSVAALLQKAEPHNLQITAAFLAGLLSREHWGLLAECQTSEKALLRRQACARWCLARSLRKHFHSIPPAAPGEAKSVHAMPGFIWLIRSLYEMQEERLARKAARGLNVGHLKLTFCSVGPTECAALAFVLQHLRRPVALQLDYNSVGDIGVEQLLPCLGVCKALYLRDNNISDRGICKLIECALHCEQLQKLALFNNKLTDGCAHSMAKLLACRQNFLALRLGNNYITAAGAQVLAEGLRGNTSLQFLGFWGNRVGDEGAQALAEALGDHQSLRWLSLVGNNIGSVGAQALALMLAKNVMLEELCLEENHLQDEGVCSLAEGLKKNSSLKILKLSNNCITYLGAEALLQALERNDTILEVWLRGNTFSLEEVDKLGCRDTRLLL
T7 sequence (P61956 whole entry): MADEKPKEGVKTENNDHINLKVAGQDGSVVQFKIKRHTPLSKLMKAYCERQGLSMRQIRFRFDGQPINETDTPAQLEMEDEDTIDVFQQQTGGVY
Genome polyprotein, sequence (P29990 2492-3391 limits assumed): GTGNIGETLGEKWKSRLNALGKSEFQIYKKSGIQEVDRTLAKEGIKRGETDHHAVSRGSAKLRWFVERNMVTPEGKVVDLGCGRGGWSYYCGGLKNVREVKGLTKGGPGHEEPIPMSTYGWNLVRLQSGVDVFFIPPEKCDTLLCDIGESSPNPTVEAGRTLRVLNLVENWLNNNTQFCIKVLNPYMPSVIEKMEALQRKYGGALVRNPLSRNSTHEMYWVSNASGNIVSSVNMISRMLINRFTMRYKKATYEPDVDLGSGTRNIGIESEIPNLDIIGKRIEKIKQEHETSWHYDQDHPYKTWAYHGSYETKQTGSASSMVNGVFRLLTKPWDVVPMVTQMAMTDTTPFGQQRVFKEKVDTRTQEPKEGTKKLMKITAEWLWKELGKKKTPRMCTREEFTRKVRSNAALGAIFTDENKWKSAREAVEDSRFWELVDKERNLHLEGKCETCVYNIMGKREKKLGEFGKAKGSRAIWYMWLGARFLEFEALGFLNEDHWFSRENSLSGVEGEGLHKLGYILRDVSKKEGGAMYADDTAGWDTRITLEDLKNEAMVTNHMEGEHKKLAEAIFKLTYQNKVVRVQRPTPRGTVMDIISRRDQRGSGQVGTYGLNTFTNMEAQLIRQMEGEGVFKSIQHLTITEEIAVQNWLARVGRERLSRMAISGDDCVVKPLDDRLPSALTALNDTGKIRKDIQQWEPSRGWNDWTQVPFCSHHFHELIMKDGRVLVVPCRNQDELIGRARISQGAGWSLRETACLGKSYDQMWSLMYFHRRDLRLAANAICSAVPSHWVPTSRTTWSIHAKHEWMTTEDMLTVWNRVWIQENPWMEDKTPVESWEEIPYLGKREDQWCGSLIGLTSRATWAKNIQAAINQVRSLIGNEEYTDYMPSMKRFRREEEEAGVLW
Tumor necrosis factor, sequence (P01375 whole entry): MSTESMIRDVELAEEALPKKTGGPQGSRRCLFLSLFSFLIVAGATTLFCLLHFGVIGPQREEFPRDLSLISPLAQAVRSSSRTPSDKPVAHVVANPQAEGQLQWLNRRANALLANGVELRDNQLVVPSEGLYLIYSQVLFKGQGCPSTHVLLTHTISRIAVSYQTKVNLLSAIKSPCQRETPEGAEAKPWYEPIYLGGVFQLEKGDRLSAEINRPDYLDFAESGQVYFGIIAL

SMILES: COc1ccc2[nH]c3c(c2c1)CCNC3c1ccc([N+](=O)[O-])o1 (configuration not stated)
- EC50 [1]: 5.82 µM (inconclusive)
- EC50 [2]: 4.34 µM (inconclusive)
- EC50 [3]: 34.1 µM (active)
- IC50 (Exodeoxyribonuclease V): > 119 µM (inactive)
- IC50 [4]: > 119 µM (inactive)

SMILES: CSc1nc(SCC(=O)O)c2sc3nc(-c4ccccc4)c4c(c3c2n1)CCC4
- IC50 [5]: 5.06 µM (active)
- EC50 [6]: 1.41 µM (active)
- EC50 (Streptokinase A): 7.33 µM (active)
- IC50 [7]: 3.72 µM (active)
- IC50 [8]: 3.74 µM (not active)
- IC50 [9]: 96.5 µM (active)
- EC50 (Streptococcus): 6.54 µM (active)
- IC50 (Genome polyprotein): 48.9 µM (active)
- IC50 [10]: 5.38 µM (active)
- IC50 [11]: 2.06 µM (active)
- IC50 [12]: 5.26 µM (active)
- IC50 [13]: 5.16 µM (active)

SMILES: CC(C)n1c(SCCCc2ccccc2)nc2c1c(=O)[nH]c(=O)n2C
- IC50 [14]: > 25 µM (inactive)
- IC50 (Interleukin-8 [15]): > 25 µM (inactive)
- IC50 (Interleukin-8 [16]): > 25 µM (inactive)
- IC50 [17]: 17.6 µM (active)
- IC50 (HEK293 [18]): > 20 µM (inactive)
- IC50 [19]: 12.3 µM (active)
- IC50 [20]: > 20 µM (inactive)
- IC50 (Tumor necrosis factor): > 20 µM (inactive)
- IC50 (HEK293 [21]): > 20 µM (inactive)
- IC50 [22]: > 20 µM (inactive)
